In patent publication US9301954B2, “Pharmaceutical composition for the prevention or treatment of osteoarthritis containing rebamipide as an active ingredient” (HANLIM PHARMACEUTICAL CO., LTD, priority 2010, dated 2016):
“Also recorded” adds a separate entry of the source.

Tested on: MIA-induced osteoarthritis rats
Assay: Therapeutic efficacy of oral rebamipide in monosodium iodoacetate (MIA)-induced osteoarthritis in rats
Type: in vivo, Wistar rats
Method: About 5 week old male Wistar rats were used. Monosodium iodoacetate (MIA) was dissolved in a physiological saline; and then administered to the rats in the dose of 4 mg/50 μl via the right knee thereof, so as to induce osteoarthritis. The rats were divided into 3 groups, each having 5 rats. The first group (non-arthritis) was a non-treated group, i.e., a normal control group. The second group (MIA) was an osteoarthritis-induced group through the MIA administration. The rats of the third group (MIA+Rebamipide) were administered with the MIA to induce osteoarthritis; and then orally administered with rebamipide every day for 7 days. At the 7th day after the MIA induction, the femurs and the tibias were isolated from the rats of each group and then observed under a dissecting microscope. After H&E staining, the knee joint sites were observed through a low-magnification lens. In the results, the nucleus is shown in blue-violet color and the cytoplasm is shown in pink color. […] The knee joints were stained with Safranin O, which can show losses of the cartilage proteoglycans. The tartrate-resistant acid phosphatase (TRAP) staining for osteoclasts, was performed at 37° C. for 30 minutes, using a leukocyte acid phosphatase kit (Sigma 387-A, USA). The TRAP-positive cells were shown in red-violet color. The multinucleated cells (having above 3 nuclei) were considered as TRAP-positive cells (osteoclasts), which were counted under an optical microscope.

**Q.** Which results are given for `O=C(NC(Cc1cc(=O)[nH]c2ccccc12)C(=O)O)c1ccc(Cl)cc1` (stereo not drawn) [rebamipide]?
**A.** Inflammation by H&E staining (MIA+Rebamipide group in comparison with the MIA group, oral, 7 days): favorably changed; Cartilage damage by histological analyses (TRAP, safranin O, H&E staining) (MIA+Rebamipide group vs MIA group, oral, 7 days): remained intact without destruction; Safranin O staining of femoral cartilage site (proteoglycan loss, surface) (MIA+Rebamipide group, oral, 7 days, similar to the non-arthritis group): smooth and shown in strong orange-red color; Cartilage damage of isolated femurs and tibias observed under a dissecting microscope (male Wistar rats, MIA 4 mg/50 μl via right knee, rebamipide orally every day for 7 days, 7th day after MIA induction): significantly inhibited; also recorded: little damages in the cartilage sites; Number of osteoclasts in the tibial subchondral bone via TRAP staining (rebamipide group in comparison with the MIA group, oral, 7 days): significantly reduced; Histology grade evaluation (standards of Table 1, FIG. 3): cartilage surface and safranin O loss (rebamipide-treated group, oral, 7 days): only a little loss of safranin O in the cartilage site
